Test results published in patent publication US20220380414A1, “COMPOSITIONS AND METHODS BASED ON HIV GP120 MUTANTS” (CENTRE H[…] L'UNIVERSITÉ DE MONTRÉAL, priority 2019, published 2022).
“Also recorded” adds a separate entry of the source.

What was measured:
[1] = system: Recombinant HIV-1 strains bearing wild-type or mutant CRF01_AE Envs (92TH023 and CM244 isolates); assay: Neutralization of recombinant luciferase HIV-1 bearing wild-type or mutant CRF01_AE Envs, infection of Cf2Th-CD4/CCR5 cells; type: cell-based
Description: J Virol 74:10690-10698). Infectivity at each dilution of sCD4 or CD4mc tested is shown as the percentage of infection without sCD4 or CD4mc for each particular mutant. Quadruplicate samples were analyzed in each experiment. Data shown are the means of results obtained in at least 3 independent experiments. The error bars represent the standard deviations. […]
FIGS. 6A-F show the effect of Phe43 cavity and layer mutations (LM) on neutralization by small molecules known to stabilize Env State 1. Recombinant HIV-1 strains expressing luciferase and bearing wild-type or mutant CRF01_AE Envs (92TH023 and CM244 isolates) were normalized by reverse transcriptase activity. Normalized amounts of viruses were incubated with serial dilutions of BMS-626529 (Nowicka-Sans B et al. 2012. Antimicrob Agents Chemother 56:3498-3507; Pancera M et al., 2017. Nat Chem Biol 13:1115-1122) (FIG. 6A, B) or 484 (16) (FIG. 6C) at 37° C. for 1 h prior to infection of Cf2Th-CD4/CCR5 cells. Infectivity at each dilution of the compound tested is shown as the percentage of infection without the compound for each particular mutant. Quadruplicate samples were analyzed in each experiment. Data shown are the means of results obtained in at least 3 independent experiments. The error bars represent the standard deviations. (FIG. 6E, F) Cell-surface staining of 293T cells transfected with different CRF01_AE Env expressors (92TH023 and CM244 isolates) WT or their mutated counterparts together with a GFP expressor (in order to identify positively transfected cells) using sCD4. Binding of sCD4 in presence of BMS-626529 (50 μM) or not (DMSO) was detected with the anti-CD4 OKT4 mAb. Shown are the mean fluorescence intensities (MFI) obtained in presence of BNM-III-170 normalized to the MFI in absence of BNM-III-170 (DMSO) from the transfected (GFP+) population for staining obtained in at least 3 independent experiments. All MFI were normalized to 2G12 MFI for each Env mutants. Decrease in sCD4 signal indicates competition with BMS-626529 (i.e., this represents an indirect measure of BMS-626529 interaction with each Env mutant). […] Error bars indicate mean±SEM. Statistical significance was tested using an unpaired t-test (** p<0.01, ns: non significant). […]
CD4mc were used as probes to evaluate the potential impact of the LM residues on shaping the Phe43 cavity. […] In contrast, no or very little effect was measured in recombinant viruses with mutations in the Phe43 cavity only or in the inner domain layer only.

[2] = system: CRF01_AE Env (92TH023 and CM244 isolates) WT or mutated; assay: Cell-surface staining of HEK293T cells transfected with CRF01_AE Env expressors, Env ligand binding with or without compound; type: cell-based, HIV-1
Description: Cell-surface staining of HEK293T cells transfected with different CRF01_AE Env expressors (92TH023 and CM244 isolates) WT or their mutated counterparts together with a GFP expressor (in order to identify positively transfected cells) using a panel of Env ligands. (FIG. 4A, B) sCD4 binding in presence of BNM-III-170 (50 μM) or not (DMSO) was detected with the anti-CD4 OKT4 mAb. Binding of broadly-neutralizing antibodies (bNAbs) that preferentially recognize state 1 Env (Lu M et al. 2019. Nature 568, pages 415-419; Munro J B et al., 2014. Science 346:759-763) (FIG. 4B, E) and non-neutralizing antibodies (nnAbs) that preferentially recognize states 2/2A/3 (Alsahafi N et al., 2019. Cell Host Microbe 25:578-587, Prevost J et al., 2018. Virology 515:38-45) (FIG. 4C, F) was also performed in presence of BNM-III-170 (50 μM) or not (DMSO). Shown are the mean fluorescence intensities (MFI) obtained in presence of BNM-III-170 normalized to the MFI in absence of BNM-111-170 (DMSO) from the transfected (GFP+) population for staining obtained in at least 3 independent experiments. All MFI were normalized to MFI signals obtained with the anti-gp120 outer domain 2G12. Decrease in sCD4 signal indicates competition with BNM-III-170 (i.e., this represents an indirect measure of BNM-III-170 interaction with each Env mutant) (FIGS. 4A and D). […] Increase in nnAbs signal is consistent with the capacity of BNM-III-170 to push Env to downstream “open” states 2/3 conformations (C and F). […] Error bars indicate mean±SEM. Statistical significance was tested using an unpaired t-test (* p<0.05, ** p<0.01, *** p<0.001, **** p<0.0001, ns: non significant).
FIGS. 6A-F show the effect of Phe43 cavity and layer mutations (LM) on neutralization by small molecules known to stabilize Env State 1. Recombinant HIV-1 strains expressing luciferase and bearing wild-type or mutant CRF01_AE Envs (92TH023 and CM244 isolates) were normalized by reverse transcriptase activity. Normalized amounts of viruses were incubated with serial dilutions of BMS-626529 (Nowicka-Sans B et al. 2012. Antimicrob Agents Chemother 56:3498-3507; Pancera M et al., 2017. Nat Chem Biol 13:1115-1122) (FIG. 6A, B) or 484 (16) (FIG. 6C) at 37° C. for 1 h prior to infection of Cf2Th-CD4/CCR5 cells. Infectivity at each dilution of the compound tested is shown as the percentage of infection without the compound for each particular mutant. Quadruplicate samples were analyzed in each experiment. Data shown are the means of results obtained in at least 3 independent experiments. The error bars represent the standard deviations. (FIG. 6E, F) Cell-surface staining of 293T cells transfected with different CRF01_AE Env expressors (92TH023 and CM244 isolates) WT or their mutated counterparts together with a GFP expressor (in order to identify positively transfected cells) using sCD4. Binding of sCD4 in presence of BMS-626529 (50 μM) or not (DMSO) was detected with the anti-CD4 OKT4 mAb. Shown are the mean fluorescence intensities (MFI) obtained in presence of BNM-III-170 normalized to the MFI in absence of BNM-III-170 (DMSO) from the transfected (GFP+) population for staining obtained in at least 3 independent experiments. All MFI were normalized to 2G12 MFI for each Env mutants. Decrease in sCD4 signal indicates competition with BMS-626529 (i.e., this represents an indirect measure of BMS-626529 interaction with each Env mutant). […] Error bars indicate mean±SEM. Statistical significance was tested using an unpaired t-test (** p<0.01, ns: non significant).
To gain a better understanding of the impact that the LM and 375 changes have on Env conformation, an assay to measure sCD4 and BNM-III-170 capacity to interact with Env was developed. Briefly, CD4-negative cells were transfected with Env variants. Two days post-transfection, BNM-III-170 or the vehicle (DMSO) was added to Env-expressing cells. […]

[3] = system: CRF01_AE Env from a transmitted founder strain (40100 isolate) with LM+HS mutations; assay: Cell-surface staining of primary CD4+ T cells infected with SHIV expressing CRF01_AE Env, anti-Env mAb binding with compound; type: cell-based
Description: Cell-surface staining of primary CD4^+ T cells infected with SHIV expressing a CRF01_AE Env from a transmitted founder strain (40100 isolate) (Chenine A L et al., 2018. J Acquir Immune Defic Syndr 78:348-355; Kijak G H et al., 2017. PLoS Pathog 13:e1006510) mutated to harbor the LM+HS mutations using a panel of Env ligands. Binding of anti-Env mAbs preferring State 1 (PGT128, PGT145, PG9, 10-1074) (FIG. 7A-D) or preferring State 2/3 (19b, 17b) (FIG. 7E-F) was performed in presence of DMSO or increasing amount of BNM-III-170 (stabilises States 2/3 (Munro J B et al., 2014. Science 346:759-763; Alsahafi N et al., 2019. Cell Host Microbe 25:578-587: e575; Herschhorn A, et al. 2017. Nat Commun 8:1049) or BMS-626529 (stabilizes State 1, (Lu M et al. 2019. Nature 568, pages 415-419; Munro J B et al., 2014. Science 346:759-763)). Shown are the mean fluorescence intensities (MFI) obtained in presence of the compounds normalized to the MFI in absence of any compound (DMSO) from the infected (p27+) population. All MFI were normalized to 2G12 MFI for each mAb. State 1 and State 2/3 Abs were grouped in FIG. 7G and FIG. 7H, respectively.

[4] = LM+HS or LM+HT mutants of CRF01_AE Envs versus wild-type
[5] = LM+HS or LM+HT mutants, BNM-III-170 50 μM vs DMSO

Compound | sensitivity to neutralization [1, 4] | Env conformation adopted in presence of ligand ([2]; CRF01_AE gp160 with the same six mutations combined with H375S) | sCD4 signal in presence of compound (competition, indirect measure of interaction with Env) ([2]; LM-HS mutant, BMS-626529 50 μM vs DMSO, detected with anti-CD4 OKT4 mAb) | Env recognition by bNAbs preferentially binding state 1 in presence of compound ([3]; increasing amount of BMS-626529 vs DMSO) | susceptibility to neutralization ([1]; H375S combined with LM mutations (LM+HS), both CRF01_AE strains) | neutralization of pseudotypes ([1]; H375S mutant of both CRF01_AE Envs) | sensitivity to neutralization ([1]; different combinations of single or multiple layer mutations together with H375S) | neutralization of viral particles ([1]; wild-type CRF01_AE Envs (92TH023 and CM244)) | Env conformation adopted in presence of ligand ([2]; CRF01_AE gp160 with H61Y, Q105H, V108I, N474D, I475M, K476R combined with H375T) | compound-induced Env conformational changes (open conformation) [2, 5] | recognition by state 1 preferring bNAbs in presence of compound [2, 5] | sCD4 and nnAbs binding (open state 2/3 preferring) in presence of compound [2, 5] | Env recognition by nnAbs preferentially binding states 2/3 in presence of compound ([3]; increasing amount of BNM-III-170 vs DMSO)
COc1cnc(-n2cnc(C)n2)c2[nH]cc(C(=O)C(=O)N3CCN(C(=O)c4ccccc4)CC3)c12 [BMS-626529, temsavir] | sensitized | tend to adopt a state 1 configuration | statistically significant decrease | enhanced Env recognition | – | – | – | – | – | – | – | – | –
CNCc1ccc2c(c1)C[C@H](CN=C(N)N)[C@H]2NC(=O)C(=O)Nc1ccc(Cl)c(F)c1.O=C(O)C(F)(F)F.O=C(O)C(F)(F)F [BNM-III-170] | more sensitive to neutralization | – | – | – | dramatically enhanced the susceptibility | did not restore neutralization sensibility | did not restore sensitivity | resistant to neutralization | tend to adopt an open state 2/3 configuration | superior; also recorded: more susceptible | decrease in recognition | increase in sCD4 and nnAbs binding | enhanced Env recognition
